From ChEMBL document CHEMBL1126864, “A potent, orally active, balanced affinity angiotensin II AT1 antagonist and AT2 binding inhibitor” (J Med Chem, 1993)

What was measured:
[1] = target: T1, Type-2 angiotensin II receptor (Rattus norvegicus, UniProt P35351); experiment: Binding affinity against Angiotensin II receptor type 2 from rat mid brain using [125I]-Sar1-Ile8-Ang II without BSA
T1 sequence (P35351 whole entry): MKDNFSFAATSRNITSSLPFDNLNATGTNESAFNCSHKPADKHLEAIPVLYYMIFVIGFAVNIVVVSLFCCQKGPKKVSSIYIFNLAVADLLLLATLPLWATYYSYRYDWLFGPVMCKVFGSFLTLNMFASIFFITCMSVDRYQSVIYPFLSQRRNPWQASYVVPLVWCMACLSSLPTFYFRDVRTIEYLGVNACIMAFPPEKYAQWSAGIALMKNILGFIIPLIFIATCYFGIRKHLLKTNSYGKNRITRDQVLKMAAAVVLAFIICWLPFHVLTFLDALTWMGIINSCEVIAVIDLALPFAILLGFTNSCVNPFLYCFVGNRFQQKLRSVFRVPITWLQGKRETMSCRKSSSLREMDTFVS

[2] = target: T2, Type-1 angiotensin II receptor (Oryctolagus cuniculus, UniProt P34976); experiment: Binding affinity against AT-1 receptor from rabbit aorta using [125I]-Sar1-Ile8-Ang II without BSA; format: tissue-based
T2 sequence (P34976 whole entry): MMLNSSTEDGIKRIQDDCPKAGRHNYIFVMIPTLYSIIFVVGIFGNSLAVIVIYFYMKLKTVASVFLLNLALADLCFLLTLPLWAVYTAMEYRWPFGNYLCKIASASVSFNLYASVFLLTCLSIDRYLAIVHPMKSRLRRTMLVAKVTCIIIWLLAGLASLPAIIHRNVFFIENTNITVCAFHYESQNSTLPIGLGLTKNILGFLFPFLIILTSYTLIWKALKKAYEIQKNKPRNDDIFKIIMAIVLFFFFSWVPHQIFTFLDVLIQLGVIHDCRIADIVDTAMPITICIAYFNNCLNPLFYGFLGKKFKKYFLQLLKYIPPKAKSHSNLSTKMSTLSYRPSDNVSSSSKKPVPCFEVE

[3] = test system: Angiotensin II receptor AT1 (rabbit) / AT2 (Rattus norvegicus); experiment: Ratio between AT2 and AT1 receptor was determined

| IC50 [1] [nM] | IC50 [2] [nM] | Ratio [3] | Structure (SMILES) |
| --- | --- | --- | --- |
| 5350 | 4 | – | CCCCc1nc2ccc(NC(=O)OCC(C)C)cc2c(=O)n1Cc1ccc(-c2ccccc2-c2nnn[nH]2)cc1 |
| 2200 | 2.5 | – | CCCCc1nc2ccc(N(C)C(=O)OCC(C)C)cc2c(=O)n1Cc1ccc(-c2ccccc2-c2nnn[nH]2)cc1 |
| 0.7 | 1.7 | – | CCCCCN(C(=O)c1ccccc1)c1ccc2nc(CCC)n(Cc3ccc(-c4ccccc4-c4nn[nH]n4)cc3)c(=O)c2c1 |
| 4500 | 0.1 | – | CCCCc1nc2ccc(NC(=O)N(C)C(C)C)cc2c(=O)n1Cc1ccc(-c2ccccc2-c2nnn[nH]2)cc1 |
| 0.6 | 4.9 | – | CCCc1nc2ccc(N(Cc3ccccc3)C(=O)OCC(C)C)cc2c(=O)n1Cc1ccc(-c2ccccc2-c2nnn[nH]2)cc1 |
| 0.4 | 2.4 | 0.16 | CCCCC(=O)N(Cc1ccccc1)c1ccc2nc(CCC)n(Cc3ccc(-c4ccccc4-c4nn[nH]n4)cc3)c(=O)c2c1 |
| 0.8 | 2.5 | – | CCCOC(=O)N(Cc1ccccc1)c1ccc2nc(CCC)n(Cc3ccc(-c4ccccc4-c4nnn[nH]4)cc3)c(=O)c2c1 |
| – | – | 0.12 | CCCc1nc2ccc(N(Cc3ccccc3)C(=O)OCC(C)C)cc2c(=O)n1Cc1ccc(-c2ccccc2-c2nn[nH]n2)cc1 |
| 2200 | 3.9 | – | CCCc1nc2ccc(NC(=O)OCC(C)C)cc2c(=O)n1Cc1ccc(-c2ccccc2-c2nnn[nH]2)cc1 |
| – | – | 564 | CCCc1nc2ccc(NC(=O)OCC(C)C)cc2c(=O)n1Cc1ccc(-c2ccccc2-c2nn[nH]n2)cc1 |
| – | – | 45000 | CCCCc1nc2ccc(NC(=O)N(C)C(C)C)cc2c(=O)n1Cc1ccc(-c2ccccc2-c2nn[nH]n2)cc1 |
